Measurements taken from patent US9623021B2, “Nuclear receptor binding agents” (GTX, Inc., priority 2007, dated 2017).
“Also recorded” adds a separate entry of the source. Like-named read-outs stand apart in the source and are kept apart here.

Assays:
[1] = tested on: uterus; assay: Uterotropic assay; settings: 50 μg/kg/day s.c., 3 days
Method: Statistical differences among groups were evaluated by one-way ANOVA. Rats were treated for 3 consecutive days and then sacrificed 24 h after the last dose. The body of the uterus was cut just above its junction with the cervix and at the junction of the uterine horns with the ovaries. The uterus was weighed with and without intrauterine fluid. Statistical comparisons were made between the weights of empty uteri.

[2] = biological target: ERβ ligand binding domain (Homo sapiens (Human), UniProt Q92731); assay: Competitive [3H]-estradiol radioligand binding, ERβ (Example 21); settings: for Ki Ratio (ER-α/ER-β): ratio between the binding constants of ER-α and ER-β
Method: (§1) ER binding affinity was determined via one of the following methods:
(§2) Briefly, the incubation mixture was filtered through a high affinity protein binding filter, and washed several times to remove any unbound radioactivity. The filter plate was air dried and sealed on the bottom.
(§3) Following incubation, plates were harvested onto GF/B filters and radioactivity was measured with a TopCount NXT (PerkinElmer). Nonspecific binding was subtracted from total binding to yield specific binding.

[3] = biological target: ER-α (Rattus norvegicus (Rat), UniProt P06211); format: cell-based; settings: for Estradiol activity at 100 nM, ER-α: 100 nM NRBA compared to 1 nM estradiol
Method: COS or 293 cells were plated in DME without phenol red+10% cs FBS at 90,000 cells per well in 24 well plates, and were transfected with 0.25 μg of the vector “ERE-LUC”, where a firefly luciferase gene was driven by two estrogen responsive elements and 0.02 μg of the control CMV-LUC, Renilla where a luciferase gene was driven by a CMV promoter. […] All the receptors were cloned from rat tissue into the PCR3.1 vector backbone. Twenty four hours post transfection, cells were treated with compounds of this invention, estrogen, DHT, and other NRBAs or combinations thereof. Cells were harvested 48 hrs after transfection, and assayed for firefly and Renilla luciferase activity.

[4] = tested on: SHP promoter; assay: SHP promoter-luciferase in HEK-293 cells transfected with FXR and ER-β; format: cell-based; settings: FXR and ER-β plasmids, FIG. 12E right panel
Method: FIG. 12 depict the effect of ER-β ligand on PPAR-γ function through ligand binding domain (LBD). (A). HEK-293 cells were transfected with 0.25 μg PPRE-LUC, 5 ng CMV-renilla LUC and the indicated receptors (PPAR-γ and ER-β for the left panel and PPAR-α and ER-β for the right panel). The cells were treated 24 hrs after transfection with the indicated ligands and harvested 48 hrs after transfection and firefly luciferase activity was measured and normalized to renilla luciferase. (B). H475 in ER-β LBD is important for its function. H475 in ER-β LBD was mutated to alanine (A) using a site directed mutagenesis kit. Transactivation assay was performed as described in panel A in HEK-293 cells with a titration of ER-β ligands in wild type or ER-β H475A. (C). […] HEK-293 cells were transfected with 0.25 μg PPRE-LUC, 5 ng CMV-renilla LUC and 50 ng of the indicated receptors (PPAR-γ or PPAR-γ and wild type ER-β or PPAR-γ and ER-β H475A). The cells were treated 24 hrs after transfection with the indicated ligands and harvested 48 hrs after transfection and firefly luciferase activity was measured and normalized to renilla luciferase. (D). […] HepG2 cells were transfected with 0.25 μg PPRE-LUC, 5 ng CMV-renilla LUC, 0.5 μg PGC-1 or vector backbone and 100 ng of the indicated receptors (PPAR-γ or PPAR-γ and wild type ER-β or PPAR-γ and ER-β H475A for top panels and PPAR-α or PPAR-α and ER-β for bottom panel). The cells were treated 24 hrs after transfection with the indicated ligands and harvested 48 hrs after transfection and firefly luciferase activity was measured and normalized to renilla luciferase. (E). SHP-1 is an ER-β specific target gene. HEK-293 cells were transfected with 0.25 μg SHP-LUC, 5 ng CMV-renilla LUC and 50 ng of the indicated receptors (FXR and ER-α for the left panel and FXR and ER-β for the right panel). The cells were treated 24 hrs after transfection with the indicated ligands and harvested 48 hrs after transfection and firefly luciferase activity was measured and normalized to renilla luciferase. […]

[5] = biological target: ERα ligand binding domain (Homo sapiens (Human), UniProt P03372); assay: Competitive [3H]-estradiol radioligand binding, ERα (Example 21)
Method: as §1, §2, §3

[6] = tested on: ARPE-19 cells; assay: Fluorescent detection of intracellular ROS in ARPE-19 cells (tBH oxidative stress); settings: 150 μM tBH, FIG. 20B
[7] = biological target: ER-β (Rattus norvegicus (Rat), UniProt Q62986); assay: ER-β transactivation, ERE-LUC reporter in COS or 293 cells (Example 21B); format: cell-based
ER-β, sequence (Q62986 whole entry): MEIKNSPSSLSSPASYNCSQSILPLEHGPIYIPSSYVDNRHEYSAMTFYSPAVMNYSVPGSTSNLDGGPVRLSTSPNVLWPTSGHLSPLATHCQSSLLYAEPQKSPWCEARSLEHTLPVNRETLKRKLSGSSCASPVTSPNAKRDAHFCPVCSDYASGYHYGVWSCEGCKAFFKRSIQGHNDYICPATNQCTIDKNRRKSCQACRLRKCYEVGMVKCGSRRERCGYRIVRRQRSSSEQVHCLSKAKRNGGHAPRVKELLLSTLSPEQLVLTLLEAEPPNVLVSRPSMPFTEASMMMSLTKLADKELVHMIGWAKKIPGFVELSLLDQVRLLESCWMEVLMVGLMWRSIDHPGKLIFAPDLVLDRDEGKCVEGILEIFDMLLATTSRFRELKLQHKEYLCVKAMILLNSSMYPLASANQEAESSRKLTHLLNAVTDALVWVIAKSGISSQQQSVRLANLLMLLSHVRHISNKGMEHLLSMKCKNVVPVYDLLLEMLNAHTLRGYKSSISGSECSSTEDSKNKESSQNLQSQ

ERβ ligand binding domain, sequence (Q92731 264-498, species assumed): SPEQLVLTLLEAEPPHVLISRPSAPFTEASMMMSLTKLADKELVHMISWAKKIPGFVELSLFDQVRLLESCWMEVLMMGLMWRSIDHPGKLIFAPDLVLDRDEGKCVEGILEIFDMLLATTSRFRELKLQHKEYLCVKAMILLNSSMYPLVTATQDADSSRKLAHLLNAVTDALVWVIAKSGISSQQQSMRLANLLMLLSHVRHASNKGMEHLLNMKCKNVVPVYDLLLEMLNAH
ERα ligand binding domain, sequence (P03372 whole entry, looked up, species assumed, the tested form may be a part): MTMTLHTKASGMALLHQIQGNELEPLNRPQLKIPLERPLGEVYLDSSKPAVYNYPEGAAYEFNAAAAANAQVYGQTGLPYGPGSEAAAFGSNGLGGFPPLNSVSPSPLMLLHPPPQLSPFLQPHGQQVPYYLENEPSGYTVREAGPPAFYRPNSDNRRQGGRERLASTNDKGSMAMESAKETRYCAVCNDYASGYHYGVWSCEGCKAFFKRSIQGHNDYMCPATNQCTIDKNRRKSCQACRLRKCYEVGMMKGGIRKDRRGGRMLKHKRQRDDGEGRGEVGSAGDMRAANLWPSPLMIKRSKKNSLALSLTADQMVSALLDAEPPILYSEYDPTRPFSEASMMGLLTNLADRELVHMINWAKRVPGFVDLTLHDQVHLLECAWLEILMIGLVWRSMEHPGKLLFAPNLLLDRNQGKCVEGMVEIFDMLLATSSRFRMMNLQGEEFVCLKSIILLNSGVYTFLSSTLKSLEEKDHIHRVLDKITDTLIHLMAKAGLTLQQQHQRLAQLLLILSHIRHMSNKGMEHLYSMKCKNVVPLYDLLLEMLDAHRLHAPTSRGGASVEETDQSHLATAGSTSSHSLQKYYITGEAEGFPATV

C[C@]12CC[C@@H]3c4ccc(O)cc4CC[C@H]3[C@@H]1CC[C@@H]2O [Estradiol]
uterine growth / uterine weight [1]: stimulated the proliferation of uterus significantly

O=c1c2ccc(O)cc2c(I)cn1-c1ccc(O)cc1 [Compound 12h, 6-hydroxy-2-(4-hydroxyphenyl)-4-iodoisoquinolin-1(2H)-one]
Ki Ratio (ER-α/ER-β) [2]: 22

Oc1ccc(-n2ccc3cc(O)cc(O)c3c2=S)cc1 [Compound 12p, 2-(4-hydroxyphenyl)-6,8-dihydroxy-isoquinoline-1(2H)-thione]
Ki [2]: 17 nM | Ki Ratio (ER-α/ER-β) [2]: 8 | Estradiol activity at 100 nM, ER-α [3]: 45%

O=c1c2c(O)cc(O)cc2ccn1-c1ccc(O)c(F)c1 [Compound 12s, 2-(3-fluoro-4-hydroxyphenyl)-6,8-dihydroxyisoquinolin-1(2H)-one]
Ki Ratio (ER-α/ER-β) [2]: 25 | Estradiol activity at 100 nM, ER-α [3]: 29%

COc1cc(O)c2c(=O)n(-c3ccc(O)cc3)cc(Br)c2c1 [Compound 12v, 4-bromo-8-hydroxy-2-(4-hydroxyphenyl)-6-methoxyisoquinolin-1(2H)-one]
Estradiol activity at 100 nM, ER-α [3]: 17%

CC(C)c1onc(-c2c(Cl)cccc2Cl)c1COc1ccc(/C=C/c2cccc(C(=O)O)c2)c(Cl)c1 [GW4064, reference compound]
SHP activity [4]: increased its activity significantly

C=Cc1cn(-c2ccc(O)cc2)c(=O)c2c(O)cc(O)cc12 [Compound 14l, 6,8-dihydroxy-2-(4-hydroxyphenyl)-4-vinylisoquinolin-1(2H)-one]
Ki [5]: 76 nM | Ki [2]: 6 nM | prevention of ROS formation / oxidative damage [6]: protected ARPE-19 cells from oxidative damage | Estradiol activity at 100 nM, ER-α [3]: 50%

COc1cc(O)c2c(=O)n(-c3ccc(O)cc3)ccc2c1C#N [Compound 12q, 8-hydroxy-2-(4-hydroxyphenyl)-6-methoxy-1-oxo-1,2-dihydroisoquinoline-5-carbonitrile]
Estradiol activity at 100 nM, ER-α [3]: 25%

O=c1c2c(O)cc(O)cc2ccn1-c1ccc(O)cc1 [Compound 12l, 6,8-dihydroxy-2-(4-hydroxyphenyl)-isoquinolin-1(2H)-one]
ER-β RLU/RenRLU ([7]; dose 0.1 nM): 0.06 RLU/RenRLU | ER-β RLU/RenRLU ([7]; dose 1 nM): 0.07 RLU/RenRLU | ER-β RLU/RenRLU ([7]; dose 10 nM): 0.16 RLU/RenRLU | ER-β RLU/RenRLU ([7]; dose 100 nM): 0.46 RLU/RenRLU | ER-β RLU/RenRLU ([7]; dose 1000 nM): 0.55 RLU/RenRLU | ER-α RLU/RenRLU ([3]; dose 0.1 nM): 0.07 RLU/RenRLU | ER-α RLU/RenRLU ([3]; dose 1 nM): 0.07 RLU/RenRLU | ER-α RLU/RenRLU ([3]; dose 10 nM): 0.07 RLU/RenRLU | ER-α RLU/RenRLU ([3]; dose 100 nM): 0.12 RLU/RenRLU | ER-α RLU/RenRLU ([3]; dose 1000 nM): 0.24 RLU/RenRLU

O=c1c2c(O)cc(O)cc2c(Br)cn1-c1ccc(O)c(F)c1 [Compound 12z, 4-bromo-6,8-dihydroxy-2-(3-fluoro-4-hydroxyphenyl)isoquinolin-1(2H)-one]
Ki [5]: 40 nM | Ki Ratio (ER-α/ER-β) [2]: 12 | prevention of ROS formation / oxidative damage [6]: able to prevent ROS formation as well as estradiol; also recorded: protected ARPE-19 cells from oxidative damage

COc1ccc(-c2cn(-c3ccc(O)cc3)c(=O)c3ccc(O)cc23)cc1 [Compound 15b, 6-hydroxy-2-(4-hydroxyphenyl)-4-(4-methoxyphenyl)isoquinolin-1(2H)-one]
Ki Ratio (ER-α/ER-β) [2]: 8.3

O=c1c2ccc(O)cc2c(Cl)cn1-c1ccc(O)cc1 [Compound 12f, 4-chloro-6-hydroxy-2-(4-hydroxyphenyl)-isoquinolin-1(2H)-one]
Ki Ratio (ER-α/ER-β) [2]: 61
